The values below come from ChEMBL document CHEMBL1133796, “Antagonists of the human CCR5 receptor as anti-HIV-1 agents. Part 2: structure-activity relationships for substituted 2-Aryl-1-[N-(methyl)-N-(phenylsulfonyl)amino]-4-(piperidin-1-yl)butanes” (Bioorg Med Chem Lett, 2001).

For orientation: IC50 means the point on the concentration scale where inhibition reaches its midpoint. A higher IC50 goes with a need for much substance. A word on the half-life: it is the time in which the quantity being followed falls by half. By IC95 is commonly meant the concentration at which the effect reaches the 95% level. Lower therefore signals an effect from little substance. As a reminder, the bioavailability is dose-corrected exposure relative to a reference, in per cent. Higher therefore signals good availability.

The target of data set [1] is T1, C-C chemokine receptor type 1 (Homo sapiens, UniProt P32246).
T1 sequence (P32246 whole entry): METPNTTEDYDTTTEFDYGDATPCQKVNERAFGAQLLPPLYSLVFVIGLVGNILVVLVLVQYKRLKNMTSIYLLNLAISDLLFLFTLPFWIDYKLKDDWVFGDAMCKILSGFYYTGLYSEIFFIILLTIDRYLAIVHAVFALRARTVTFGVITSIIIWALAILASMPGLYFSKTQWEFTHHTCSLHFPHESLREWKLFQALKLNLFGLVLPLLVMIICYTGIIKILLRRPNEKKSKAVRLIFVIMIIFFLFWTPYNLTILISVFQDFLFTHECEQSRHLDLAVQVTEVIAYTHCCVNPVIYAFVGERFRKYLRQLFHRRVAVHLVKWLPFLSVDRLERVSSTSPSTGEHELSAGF
Briefly: Compound concentration that causes 50 % inhibition of binding of specific radioligand to human CCR1 receptor.

Another data set is filed under the species Homo sapiens. Briefly: Compound was evaluated in an isolated peripheral blood mononuclear cell (PBMC) viral replication assay using the X4-tropic NL4-3 strain; No inhibition. The data set is classed as functional.
Data set [2] is described as follows: Half-life period was evaluated in rat, after administering 1 mg/kg intravenously. As to conditions: in vivo, iv. The data set is classed as ADME, organism-based. More on the design: dose 1 mg/kg, route intravenous.
A short description of data set [3]: Compound was evaluated in an isolated peripheral blood mononuclear cell (PBMC) viral replication assay using the R5-tropic strain SF-162 isolate. Format: functional. To be noted: Homo sapiens.
The target of data set [4] is C-C chemokine receptor type 2 (Homo sapiens, UniProt P41597). Put plainly: Compound concentration that causes 50 % inhibition of binding of specific radioligand to human CCR2 receptor.
A short description of data set [5]: Bioavailability (F) was evaluated in rat, after administering 1 mg/kg intravenously. Format: ADME, organism-based. To be noted: in vivo, iv.
For data set [6], the target named is T2, C-C chemokine receptor type 3 (Homo sapiens, UniProt P51677).
T2 sequence (P51677 whole entry): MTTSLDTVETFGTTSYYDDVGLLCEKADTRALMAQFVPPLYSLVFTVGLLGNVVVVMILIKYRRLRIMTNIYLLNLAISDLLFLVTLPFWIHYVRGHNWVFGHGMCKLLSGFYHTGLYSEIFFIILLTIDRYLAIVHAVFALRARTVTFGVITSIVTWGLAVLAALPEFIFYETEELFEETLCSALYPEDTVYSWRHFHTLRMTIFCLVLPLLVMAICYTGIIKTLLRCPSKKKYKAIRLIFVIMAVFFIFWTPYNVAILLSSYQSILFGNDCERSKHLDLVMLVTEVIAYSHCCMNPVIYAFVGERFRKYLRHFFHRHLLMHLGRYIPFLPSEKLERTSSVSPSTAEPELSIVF
Briefly: Compound concentration that causes 50 % inhibition of binding of specific radioligand to human CCR3 receptor.

A short description of data set [7]: Compound was evaluated in an isolated peripheral blood mononuclear cell (PBMC) viral replication assay using the R5-tropic HIV-1 YU-2 isolate. Format: functional. As to conditions: Homo sapiens.
The target of data set [8] is C-C chemokine receptor type 5 (Homo sapiens, UniProt P51681). Briefly: Inhibitory activity against specific binding of [125I]-MIP-1 alpha to human CCR5 receptor.
For data set [9], the target named is C-X-C chemokine receptor type 4 (Homo sapiens) (UniProt P61073). Put plainly: Compound concentration that causes 50 % inhibition of binding of specific radioligand to human CXCR4 receptor.

The source made the active and inactive calls. The calls are words filed in the database; no cut-off is given here. A value given as a limit tells only on which side of the number the result lay.

Chain of C-X-C chemokine receptor type 4 (Homo sapiens) (P61073 whole entry, looked up): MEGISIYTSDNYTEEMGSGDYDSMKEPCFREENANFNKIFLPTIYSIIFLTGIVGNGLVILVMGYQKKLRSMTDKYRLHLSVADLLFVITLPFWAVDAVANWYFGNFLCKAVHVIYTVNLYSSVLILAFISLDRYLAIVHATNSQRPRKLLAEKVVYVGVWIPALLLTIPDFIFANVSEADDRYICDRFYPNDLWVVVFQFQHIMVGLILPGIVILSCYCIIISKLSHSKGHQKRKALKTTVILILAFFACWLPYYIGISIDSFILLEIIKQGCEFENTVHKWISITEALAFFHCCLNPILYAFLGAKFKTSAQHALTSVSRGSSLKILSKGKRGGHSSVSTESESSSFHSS
Chain of C-C chemokine receptor type 5 (P51681 whole entry): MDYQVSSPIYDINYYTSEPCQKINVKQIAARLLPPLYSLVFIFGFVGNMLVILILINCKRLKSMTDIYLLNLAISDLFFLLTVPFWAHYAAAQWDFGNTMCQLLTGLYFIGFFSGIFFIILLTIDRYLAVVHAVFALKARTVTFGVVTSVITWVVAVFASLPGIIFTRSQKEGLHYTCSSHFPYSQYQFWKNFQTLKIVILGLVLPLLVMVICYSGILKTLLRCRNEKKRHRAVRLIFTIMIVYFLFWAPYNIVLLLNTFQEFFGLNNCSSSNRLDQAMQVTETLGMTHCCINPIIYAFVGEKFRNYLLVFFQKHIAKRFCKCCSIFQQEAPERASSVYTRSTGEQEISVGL
Chain of C-C chemokine receptor type 2 (P41597 whole entry): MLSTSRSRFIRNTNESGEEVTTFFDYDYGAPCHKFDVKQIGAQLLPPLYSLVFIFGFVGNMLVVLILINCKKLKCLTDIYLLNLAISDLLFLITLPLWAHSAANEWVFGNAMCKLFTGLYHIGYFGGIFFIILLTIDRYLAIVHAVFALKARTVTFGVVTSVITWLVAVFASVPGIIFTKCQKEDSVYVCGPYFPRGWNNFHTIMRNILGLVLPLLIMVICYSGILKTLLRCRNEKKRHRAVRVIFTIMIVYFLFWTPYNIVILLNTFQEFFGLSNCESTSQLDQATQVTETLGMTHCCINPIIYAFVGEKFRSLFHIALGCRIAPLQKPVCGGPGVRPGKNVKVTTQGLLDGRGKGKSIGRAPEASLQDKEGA

`CN(C[C@@H](CCN1CCC2(CC1)C[S+]([O-])c1ccccc12)c1cccc(Cl)c1)S(=O)(=O)c1ccccc1` (stereo not given in full): the IC50 was greater than 10000 nM in [1]; greater than 10000 nM in data set [4]; greater than 10000 nM in data set [6]; 10 nM in data set [8]; 10000 nM in [9]. Further, the NI result in the data set listed under Homo sapiens is “inactive”. Moreover, the half-life in data set [2] was 42 min. The IC95 in data set [3] was 800 nM; in data set [7], 1500 nM. This molecule also came in with a bioavailability in data set [5] of 3%.
